Reference: PubChem BioAssay (NCI)
Several values for one entry are separate records, joined by “and”; a condition that tells them apart may be missing. Equal values may be shown once.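 The compound was tested at five concentrations on cells cultured in 96-well plates, with a 48-hour exposure period. Abbreviation: GI50, concentration required for 50% inhibition of growth. TGI marks complete inhibition of growth.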

tested on: TK-10 renal; experiment: growth of human tumour cells (NCI), 48 h

For COc1ccc(CN2C(=O)/C(=C\C(=O)c3ccc(OCCN4CCCCC4)cc3)c3ccccc32)cc1, the GI50 was 1.69 µM.

Compound COc1ccc(CN2C(=O)/C(=C\C(=O)c3ccc(OCCN4CCCCC4)cc3)c3ccccc32)cc1 has a TGI of 3.18 µM.

tested on: UACC-257 melanoma; experiment: growth of human tumour cells (NCI), 48 h

Point of comparison: Cn1cc(CO)c2c1C(=O)C=C(N1CC1)C2=O, GI50 0.0198 µM. Against it:
- OC[C@H]1C[C@](O)(c2ccc(Cl)cc2)[C@@H](c2ccc(Cl)cc2)O1 — 1100-fold higher, 21.2 µM
- C=COCCCOc1ccccc1 — higher, > 100 µM
- O=c1c2sc(=S)n(-c3ccc(F)cc3)c2ncn1Cc1ccc(F)cc1F — higher, > 100 µM
- C=CCCCCC/C=C\[C@H](O)C#CC#C/C=C/CO — 4000-fold higher, 78.9 µM
- O=C1NC(=O)C(c2cnc3ccccn23)=C1c1cn2c3c(cc(F)cc13)CN(C(=O)N1CCCCC1)CC2 — 910-fold higher, 18.1 µM
- Clc1nc2ccccc2nc1CI — 650-fold higher, 12.9 µM
- Cn1nc(N)c2cc([C@@H]3Nc4ccc5[nH]ncc5c4[C@H]4C5CCC(C5)[C@@H]34)ccc21 (stereo not given in full) — 800-fold higher, 15.9 µM
- [Cl][Hg][c]1cc(Br)cc(Br)c1 — 510-fold higher, 10 µM
- COc1ccc(C(C)=O)cc1N1C(=O)C2C(C1=O)C1(c3ccccc3)C(=O)C2(c2ccccc2)C(c2ccc(C)cc2)=C1c1ccc(C)cc1 (stereo not given) — higher, > 100 µM
- CCN(CC)c1ccc2c(c1)OC(N)=C(C#N)C2c1cc(OC)c2c(c1)OCO2 (stereo not given) — 16-fold higher, 0.312 µM
- N#CC(=C1C=CC(=NO)C=C1)c1ccccc1 — 110-fold higher, 2.12 µM
- CCCCCCCCCCCCCC1=NC(C)(C)CN1C(C)C — 97-fold higher, 1.92 µM
- CC(C)=CCNc1ncnc2c1ncn2C1OC(CO)C(O)C1O (stereo not given) — higher, > 792 µM
- COc1ccc(CN2C(=O)/C(=C\C(=O)c3ccc(OCCN4CCCCC4)cc3)c3ccccc32)cc1 — 850-fold higher, 16.8 µM

Point of comparison: O=C1NC(=O)C(c2cnc3ccccn23)=C1c1cn2c3c(cc(F)cc13)CN(C(=O)N1CCCCC1)CC2, TGI 40.4 µM. Against it:
- OC[C@H]1C[C@](O)(c2ccc(Cl)cc2)[C@@H](c2ccc(Cl)cc2)O1 — within 1.5-fold, 44.7 µM
- C=COCCCOc1ccccc1 — higher, > 100 µM
- C=C(c1nc2ccc(Cl)cc2[nH]c1=O)C(O)c1ccc(C(O)C(=O)c2nc3ccc(Cl)cc3[nH]c2=O)cc1 (stereo not given) — higher, > 100 µM
- O=c1c2sc(=S)n(-c3ccc(F)cc3)c2ncn1Cc1ccc(F)cc1F — higher, > 100 µM
- C=CCCCCC/C=C\[C@H](O)C#CC#C/C=C/CO — higher, > 100 µM
- COc1cc(C#CC(=O)OC/C=C/c2ccc3c(c2)OCO3)cc(OC)c1OC — 1.8-fold higher, 70.9 µM
- Clc1nc2ccccc2nc1CI — 1.5-fold lower, 26.2 µM
- Cn1nc(N)c2cc([C@@H]3Nc4ccc5[nH]ncc5c4[C@H]4C5CCC(C5)[C@@H]34)ccc21 (stereo not given in full) — within 1.5-fold, 59.5 µM
- Cn1cc(CO)c2c1C(=O)C=C(N1CC1)C2=O — 580-fold lower, 0.0692 µM
- [Cl][Hg][c]1cc(Br)cc(Br)c1 — 1.9-fold lower, 21.6 µM
- COc1ccc(C(C)=O)cc1N1C(=O)C2C(C1=O)C1(c3ccccc3)C(=O)C2(c2ccccc2)C(c2ccc(C)cc2)=C1c1ccc(C)cc1 (stereo not given) — higher, > 100 µM
- CCN(CC)c1ccc2c(c1)OC(N)=C(C#N)C2c1cc(OC)c2c(c1)OCO2 (stereo not given) — 2.8-fold lower, 14.5 µM
- N#CC(=C1C=CC(=NO)C=C1)c1ccccc1 — 2.3-fold lower, 17.8 µM
- CCCCCCCCCCCCCC1=NC(C)(C)CN1C(C)C — 12-fold lower, 3.39 µM
- CC(C)=CCNc1ncnc2c1ncn2C1OC(CO)C(O)C1O (stereo not given) — higher, > 1000 µM
- COc1ccc(CN2C(=O)/C(=C\C(=O)c3ccc(OCCN4CCCCC4)cc3)c3ccccc32)cc1 — within 1.5-fold, 30.8 µM

For O/N=C/C1C(OCc2ccccc2)C(OCc2ccccc2)C(OCc2ccccc2)CN1Cc1ccccc1 (stereo not given), the GI50 was 23.3 µM and 2.45 µM.
In the case of CCN(CC)CCCC(CNc1ccnc2cc(Cl)ccc12)c1ccc(Cl)cc1 (stereo not given), the GI50 is reported as 1.97 µM and 0.583 µM.

O/N=C/C1C(OCc2ccccc2)C(OCc2ccccc2)C(OCc2ccccc2)CN1Cc1ccccc1 (stereo not given) was tested, and the TGI was 72.5 µM and 15.7 µM.
CCN(CC)CCCC(CNc1ccnc2cc(Cl)ccc12)c1ccc(Cl)cc1 (stereo not given) was tested, and the TGI was 3.74 µM and 1.61 µM.
In the case of O=C1c2cccc(NCCCNCCO)c2C(=O)c2cccc(NCCCNCCO)c21, the TGI is reported as 11.2 µM and 14 µM.

tested on: HCC-2998 colon; experiment: growth of human tumour cells (NCI), 48 h

Point of comparison: C=CCCCCC/C=C\[C@H](O)C#CC#C/C=C/CO, GI50 12.5 µM. Against it:
- OC[C@H]1C[C@](O)(c2ccc(Cl)cc2)[C@@H](c2ccc(Cl)cc2)O1 — 1.9-fold higher, 23.8 µM
- O=c1c2sc(=S)n(-c3ccc(F)cc3)c2ncn1Cc1ccc(F)cc1F — higher, > 100 µM
- O=C1NC(=O)C(c2cnc3ccccn23)=C1c1cn2c3c(cc(F)cc13)CN(C(=O)N1CCCCC1)CC2 — within 1.5-fold, 14.6 µM
- Clc1nc2ccccc2nc1CI — 1.5-fold higher, 19.1 µM
- Cn1nc(N)c2cc([C@@H]3Nc4ccc5[nH]ncc5c4[C@H]4C5CCC(C5)[C@@H]34)ccc21 (stereo not given in full) — 8.3-fold lower, 1.5 µM
- Cn1cc(CO)c2c1C(=O)C=C(N1CC1)C2=O — lower, < 0.0122 µM
- [Cl][Hg][c]1cc(Br)cc(Br)c1 — 6-fold lower, 2.08 µM
- COc1ccc(C(C)=O)cc1N1C(=O)C2C(C1=O)C1(c3ccccc3)C(=O)C2(c2ccccc2)C(c2ccc(C)cc2)=C1c1ccc(C)cc1 (stereo not given) — higher, > 100 µM
- CCN(CC)c1ccc2c(c1)OC(N)=C(C#N)C2c1cc(OC)c2c(c1)OCO2 (stereo not given) — 410-fold lower, 0.0302 µM
- N#CC(=C1C=CC(=NO)C=C1)c1ccccc1 — 2.7-fold lower, 4.61 µM
- CCCCCCCCCCCCCC1=NC(C)(C)CN1C(C)C — 8.9-fold lower, 1.41 µM
- CC(C)=CCNc1ncnc2c1ncn2C1OC(CO)C(O)C1O (stereo not given) — 2.8-fold lower, 4.49 µM
- COc1ccc(CN2C(=O)/C(=C\C(=O)c3ccc(OCCN4CCCCC4)cc3)c3ccccc32)cc1 — 5.2-fold lower, 2.4 µM

Point of comparison: O=C1NC(=O)C(c2cnc3ccccn23)=C1c1cn2c3c(cc(F)cc13)CN(C(=O)N1CCCCC1)CC2, TGI 32.8 µM. Against it:
- OC[C@H]1C[C@](O)(c2ccc(Cl)cc2)[C@@H](c2ccc(Cl)cc2)O1 — 1.6-fold higher, 52.9 µM
- C=COCCCOc1ccccc1 — higher, > 100 µM
- C=C(c1nc2ccc(Cl)cc2[nH]c1=O)C(O)c1ccc(C(O)C(=O)c2nc3ccc(Cl)cc3[nH]c2=O)cc1 (stereo not given) — higher, > 100 µM
- O=c1c2sc(=S)n(-c3ccc(F)cc3)c2ncn1Cc1ccc(F)cc1F — higher, > 100 µM
- C=CCCCCC/C=C\[C@H](O)C#CC#C/C=C/CO — within 1.5-fold, 25.1 µM
- COc1cc(C#CC(=O)OC/C=C/c2ccc3c(c2)OCO3)cc(OC)c1OC — 1.5-fold higher, 49.2 µM
- O/N=C/C1C(OCc2ccccc2)C(OCc2ccccc2)C(OCc2ccccc2)CN1Cc1ccccc1 (stereo not given) — higher, > 100 µM
- Clc1nc2ccccc2nc1CI — within 1.5-fold, 35.9 µM
- Cn1nc(N)c2cc([C@@H]3Nc4ccc5[nH]ncc5c4[C@H]4C5CCC(C5)[C@@H]34)ccc21 (stereo not given in full) — 2.4-fold lower, 13.4 µM
- Cn1cc(CO)c2c1C(=O)C=C(N1CC1)C2=O — 670-fold lower, 0.049 µM
- [Cl][Hg][c]1cc(Br)cc(Br)c1 — 7.6-fold lower, 4.29 µM
- COc1ccc(C(C)=O)cc1N1C(=O)C2C(C1=O)C1(c3ccccc3)C(=O)C2(c2ccccc2)C(c2ccc(C)cc2)=C1c1ccc(C)cc1 (stereo not given) — higher, > 100 µM
- CCN(CC)c1ccc2c(c1)OC(N)=C(C#N)C2c1cc(OC)c2c(c1)OCO2 (stereo not given) — 24-fold lower, 1.35 µM
- N#CC(=C1C=CC(=NO)C=C1)c1ccccc1 — 2.2-fold lower, 15 µM
- CCCCCCCCCCCCCC1=NC(C)(C)CN1C(C)C — 12-fold lower, 2.74 µM
- CC(C)=CCNc1ncnc2c1ncn2C1OC(CO)C(O)C1O (stereo not given) — 2.9-fold higher, 94.3 µM
- COc1ccc(CN2C(=O)/C(=C\C(=O)c3ccc(OCCN4CCCCC4)cc3)c3ccccc32)cc1 — 6.5-fold lower, 5.05 µM

In the case of CCN(CC)CCCC(CNc1ccnc2cc(Cl)ccc12)c1ccc(Cl)cc1 (stereo not given), the GI50 is reported as 1.42 µM and 0.834 µM.

In the case of CCN(CC)CCCC(CNc1ccnc2cc(Cl)ccc12)c1ccc(Cl)cc1 (stereo not given), the TGI is reported as 2.96 µM and 2.21 µM.
For O=C1c2cccc(NCCCNCCO)c2C(=O)c2cccc(NCCCNCCO)c21, the TGI was 2.4 µM and 2.13 µM.

tested on: HL-60(TB) leukemia; experiment: growth of human tumour cells (NCI), 48 h

Point of comparison: OC[C@H]1C[C@](O)(c2ccc(Cl)cc2)[C@@H](c2ccc(Cl)cc2)O1, GI50 17.6 µM. Against it:
- O=c1c2sc(=S)n(-c3ccc(F)cc3)c2ncn1Cc1ccc(F)cc1F — higher, > 100 µM
- C=CCCCCC/C=C\[C@H](O)C#CC#C/C=C/CO — 4.8-fold lower, 3.64 µM
- O=C1NC(=O)C(c2cnc3ccccn23)=C1c1cn2c3c(cc(F)cc13)CN(C(=O)N1CCCCC1)CC2 — 2-fold lower, 8.74 µM
- Clc1nc2ccccc2nc1CI — 6.2-fold lower, 2.86 µM
- Cn1nc(N)c2cc([C@@H]3Nc4ccc5[nH]ncc5c4[C@H]4C5CCC(C5)[C@@H]34)ccc21 (stereo not given in full) — 46-fold lower, 0.381 µM

Point of comparison: O=C1NC(=O)C(c2cnc3ccccn23)=C1c1cn2c3c(cc(F)cc13)CN(C(=O)N1CCCCC1)CC2, TGI 44.3 µM. Against it:
- OC[C@H]1C[C@](O)(c2ccc(Cl)cc2)[C@@H](c2ccc(Cl)cc2)O1 — within 1.5-fold, 49.2 µM
- C=COCCCOc1ccccc1 — higher, > 100 µM
- C=C(c1nc2ccc(Cl)cc2[nH]c1=O)C(O)c1ccc(C(O)C(=O)c2nc3ccc(Cl)cc3[nH]c2=O)cc1 (stereo not given) — within 1.5-fold, 41.8 µM
- O=c1c2sc(=S)n(-c3ccc(F)cc3)c2ncn1Cc1ccc(F)cc1F — higher, > 100 µM
- C=CCCCCC/C=C\[C@H](O)C#CC#C/C=C/CO — 1.8-fold lower, 24.1 µM
- COc1cc(C#CC(=O)OC/C=C/c2ccc3c(c2)OCO3)cc(OC)c1OC — within 1.5-fold, 62.9 µM
- O/N=C/C1C(OCc2ccccc2)C(OCc2ccccc2)C(OCc2ccccc2)CN1Cc1ccccc1 (stereo not given) — 1.8-fold higher, 80.4 µM
- Clc1nc2ccccc2nc1CI — 2.4-fold lower, 18.2 µM
- Cn1nc(N)c2cc([C@@H]3Nc4ccc5[nH]ncc5c4[C@H]4C5CCC(C5)[C@@H]34)ccc21 (stereo not given in full) — 6.9-fold lower, 6.46 µM
